Assay results: US11197856B2, “Bicyclic compounds and methods for their use in treating autism” (priority 2013, dated 2021)

Tests used:
ATF3 = experiment: PBBI in rats: ATF3 Western blotting; format: in vivo; details: 24 hrs. after PBBI
Text: The unilateral frontal PBBI model, which mimics the ballistic dynamics of a bullet or fragment wound to the head (Williams, 2003; Williams, 2006), was induced by stereotactic insertion of a custom probe through the right frontal cortex. A temporary cavity was formed by the rapid inflation/deflation (i.e. <40 msec) of an elastic balloon attached to the end of the probe. The PBBI apparatus consisted of a computer-controlled hydraulic pressure generator (Mitre Corp McLean, Va.), a PBBI probe and a stereotaxic frame equipped with a custom-designed probe holder as previously described (Lu, 2009; Williams, 2003). The injury severity was determined by the size of the balloon under control of the computerized hydraulic pressure. The balloon diameter calibrated to 0.63 cm expansion represented 10% of the total rat brain volume thus expressing a 10% PBBI. All surgeries were done under anaesthesia. Groups tested: Sham+vehicle, PBBI+vehicle, PBBI+cG-2-AllylP (30 mg/kg by oral gavage, 30 min post-injury, and again once daily until endpoint). AU procedures were approved by the Institutional Animal Care and Use Committee of WRAIR. Animals were housed in a facility accredited by the AAALAC. […]
Samples were analysed at 24 hr and 3 and 7 days post-injury for all groups (sham+vehicle, PBBI+vehicle, PBBI+cG-2-AllylP). […]

[1] = test system: Male patients having Fragile X Syndrome
Method: Symptoms are evaluated using one or more of the clinical evaluative tools discussed herein above. Each patient is scored according to one or more clinical evaluative tool for one or more of Repetitive Behavior (RBB), Anxiety, and Sociability. A Clinical Global Impression-Severity (CGI-S) score of 4 or greater, or an ABC total score of 30 or greater are enrolled.
The enrolled patients are divided into groups. […] Placebo (n=20) is strawberry diluent and water.
Efficacy is determined using Clinical Global Impression of Severity (CGI-S), Clinical Global Impression of Improvement (CGI-I), Fragile X Syndrome Rating Scale, clinician-completed Fragile X Domain Specific Concerns (Visual Analog Scale), Caregiver Top Three Concerns (Visual Analogue Scale), Aberrant Behavior Checklist, Vineland Adaptive Behavior Scale, CASI-16, CYBOCS-PDD, seizure diary, computerized eye tracking, computerized measurement of cognition using the KiTap, and the Expressive Language Sampling Task.
Serum levels and changes of standard hematology and chemistry parameters (including thyroid function) are calculated from Baseline through to Day 70. Fundoscopy and tonsil size is documented at Baseline, and Days 14, 28, 42, 36, 70 and 84. […] ECG is assessed at Screening, Baseline, Days 28, 42, 36 and 70. […]

hippocampal CA1 neurons = experiment: Dendritic arborization, dendritic and spine length after Golgi staining, mecp2 knockout mice; format: in vivo
Method: We assess the effects of cG-2-AllylP treatment on dendrites. Transgenic mecp2 knockout mice (n=15 to 20) are administered cG-2-AllylP intraperitoneally at a dose of 20 mg/kg once daily. Following sacrifice dendritic spine density, spine length and aborization are examined after Golgi staining after nine weeks, according to Table 5 below.
Dendritic length is assessed by distance from the soma of representative hippocampal CA1 neurons from 9 week old male mecp2 null mutant mice treated with either saline (3 neurons analysed from 3 separate mice, n=9) or cG-2-AllylP (20 mg/kg i.p. 1/day, from week 4; 3 neurons are analysed from 3 separate mice, n=9).

[2] = test system: Fmr1-K02 mice and wildtype (WT) littermates; experiment: Inspection of animals for toxicity in Fragile X studies; format: in vivo; details: fmr1-knockout and wild-type mice
Method: Experiments were conducted in accordance with the United Kingdom Animals (Scientific Procedures) Act of 1986. Fmr1-K02 mice and wildtype (WT) littermates were generated on a C57BL/6J background and repeatedly backcrossed onto a C57BL/6J background for more than eight generations and send to Chile by the Jackson's laboratory. Mice were grouping housed (4-6 per cage) and all animals were provided with ad libitum food and water unless otherwise stated. Mice were maintained on a 12 h light/dark cycle (lights off 19:00 to 7:00) in a temperature-controlled environment (21±1° C.).
Animals were inspected for differences in coat appearance, whether any piloerection is present, eye condition (runny eyes or porphyria, ptosis) gait appearance, tremor, tail tone, reactivity to handling, etc.

[3] = test system: hippocampal slices of Shank3-deficient mice; experiment: Shank3-deficient mice: hippocampal slice electrophysiology; format: in vivo
Method: 1 to 3 month old wild-type and heterozygous Shank3-deficient mice are divided into 4 treatment groups: placebo treated wild-type, placebo treated Shank3-deficient group and two Shank3-deficient cG-2-AllylP treated groups. The animals are given placebo (water) or cG-2-AllylP formulated in water administered orally, b.i.d for 14 days. cG-2-AllylP is administered at two doses: 15 or 60 mg/kg.
Post-mortem, acute hippocampal slices (350 μm) are prepared from mice using a tissue chopper. Slices are maintained and experiments are conducted at 32° C. Slices are perfused with Ringer's solution containing (in mM): NaCl, 125.0; KCl, 2.5; MgSO4, 1.3; NaH2PO4, 1.0; NaHCO3, 26.2; CaCl2, 2.5; glucose, 11.0. The Ringer's solution is bubbled with 95% 02/5% CO2, at 32° C., during extracellular recordings (electrode solution: 3 M NaCl). Slices are maintained for 1 hr prior to establishment of a baseline of field excitatory postsynaptic potentials (fEPSPs) recorded from stratum radiatum in area CA1, evoked by stimulation of the Schaffer collateral-commissural afferents (100 μs pulses every 30 s) with bipolar tungsten electrodes placed into area CA3. Test stimulus intensity is adjusted to obtain fEPSPs with amplitudes that are one-half of the maximal response. The EPSP initial slope (mV/ms) is determined from the average waveform of four consecutive responses. Input-output (I/O) curves are generated by plotting the fEPSP slope versus fiber volley amplitude in low-Mg^2+ (0.1 mM) solution. AMPA receptor-mediated and NMDA receptor-mediated I/O relationships are measured in the presence of ionotropic glutamate receptor antagonists: […] APV (50 μM) and 6-cyano-7-nitroquinoxaline-2,3-dione CNQX (100 μM). Paired-pulse responses are measured with interstimulus intervals of 10 to 200 ms, and are expressed as the ratio of the average responses to the second stimulation pulse to the first stimulation pulse. […]

SMILES: C=CC[C@]12CCCN1C(=O)CNC2=O [cG-2-AllylP, (8aS)-Allyl-hexahydropyrrolo[1,2-a]pyrazine-1,4-dione]
- ATF3 expression (ATF3): decreased ATF3 at 24 hrs. after PBBI
- clinical outcomes (evaluative tools) ([1]; 35 or 70 mg/kg b.i.d. oral, 28 days): clinically relevant and significant effects to improve clinical outcomes
- pERK and pAkt levels ([1]; peripheral lymphocytes): normalizes pERK and pAkt levels
- dendritic length by distance from the soma (hippocampal CA1 neurons; hippocampal CA1 neurons, vs saline): produces longer dendrites over much of the range of distances from the somas
- dendritic arborization and dendritic spine length (hippocampal CA1 neurons; mecp2 knockout mice, 20 mg/kg i.p. once daily, nine weeks): improves dendritic arborization and increases dendritic spine length
- toxicity (coat, piloerection, eyes, gait, tremor, tail tone, reactivity) [2]: No instances of toxicity have been observed
- hippocampal long-term potentiation (LTP) and its maintenance ([3]; both Shank3-deficient groups, vs placebo): increases hippocampal long-term potentiation (LTP) and its maintenance
- AMPA receptor-mediated field potentials ([3]; both heterozygous groups, 15 or 60 mg/kg): normalizes the AMPA receptor-mediated field potentials
- average slope of I/O function ([3]; both heterozygous groups, vs placebo treated Shank3-deficient group): increase in the average slope of I/O function
